Laboratory results from PubChem BioAssay AID1963986 (Molecular Pharmacology Branch, DTP, NCI, 2024).

Tested on: 171881-019-R-J1-PDC tumor spheroid viability
Test: Anticancer human tumor 171881-019-R-J1-PDC patient-derived invasive breast carcinoma cell line growth inhibition [PI3K]
Conditions: spheroids with HUVEC and MSC; for IC50: curve of first compound; for viability, T/C: stronger effect = lower value
Outline: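 Stroma-containing spheroids: tumor line, pooled-donor HUVEC, hMSC. Treatments: targeted agents with PI3K inhibitors. Dosing: clinically relevant, half-log spacing, 10 microM ceiling without known Cmax. Read-out: cell viability.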

[1] = second compound 0.0316 µM, first compound 0.0316 µM
[2] = second compound 0.0316 µM, first compound 0.1 µM
[3] = second compound 0.1 µM, first compound 0.0316 µM
[4] = second compound 0.1 µM, first compound 0.1 µM
[5] = second compound 0.316 µM, first compound 0.0316 µM
[6] = second compound 0.316 µM, first compound 0.1 µM
[7] = second compound 1 µM, first compound 0.0316 µM
[8] = second compound 1 µM, first compound 0.1 µM
[9] = second compound 3.16 µM, first compound 0.0316 µM
[10] = second compound 3.16 µM, first compound 0.1 µM
[11] = second compound 10 µM, first compound 0.0316 µM
[12] = second compound 10 µM, first compound 0.1 µM
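Further: spheroids exposed to compound for 7 days before viability read.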
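Wherever viability, T/C is given: 100% = DMSO vehicle-treated spheroids.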

In the case of `CC(=O)c1c(C)c2cnc(Nc3ccc(N4CCNCC4)cn3)nc2n(C2CCCC2)c1=O` + Cc1nc(NC(=O)N2CCCC2C(N)=O)sc1-c1ccnc(C(C)(C)C(F)(F)F)c1, the IC50 (second compound 0.0316 µM) is reported as > 0.1 µM, the IC50 (second compound 0.1 µM) is reported as > 0.1 µM and the IC50 (second compound 0.316 µM) is reported as > 0.1 µM. For the same molecule, the IC50 (second compound 1 µM) was < 0.000316 µM, the IC50 (second compound 3.16 µM) was < 0.000316 µM and the IC50 (second compound 10 µM) was < 0.000316 µM. For the same molecule, the viability, T/C (second compound 0.0316 µM, first compound 0.000316 µM) was 106%, the viability, T/C (second compound 0.0316 µM, first compound 0.001 µM) was 96.3% and the viability, T/C (second compound 0.0316 µM, first compound 0.00316 µM) was 91.2%. It also gave a viability, T/C (second compound 0.0316 µM, first compound 0.01 µM) of 101%, a viability, T/C [1] of 105% and a viability, T/C [2] of 88.6%. The viability, T/C (second compound 0.1 µM, first compound 0.000316 µM) was 78.9%, the viability, T/C (second compound 0.1 µM, first compound 0.001 µM) was 79% and the viability, T/C (second compound 0.1 µM, first compound 0.00316 µM) was 84.8%. The viability, T/C (second compound 0.1 µM, first compound 0.01 µM) was 88.9%, the viability, T/C [3] was 88.3% and the viability, T/C [4] was 82.6%. For the same molecule, the viability, T/C (second compound 0.316 µM, first compound 0.000316 µM) was 57.9%, the viability, T/C (second compound 0.316 µM, first compound 0.001 µM) was 61.5% and the viability, T/C (second compound 0.316 µM, first compound 0.00316 µM) was 54.3%. It also gave a viability, T/C (second compound 0.316 µM, first compound 0.01 µM) of 63.2%, a viability, T/C [5] of 63.1% and a viability, T/C [6] of 63.2%. It also gave a viability, T/C (second compound 1 µM, first compound 0.000316 µM) of 33%, a viability, T/C (second compound 1 µM, first compound 0.001 µM) of 33.7% and a viability, T/C (second compound 1 µM, first compound 0.00316 µM) of 37.3%. The viability, T/C (second compound 1 µM, first compound 0.01 µM) was 37.6%, the viability, T/C [7] was 43.8% and the viability, T/C [8] was 38.8%. For the same molecule, the viability, T/C (second compound 3.16 µM, first compound 0.000316 µM) was 14.1%, the viability, T/C (second compound 3.16 µM, first compound 0.001 µM) was 14.3% and the viability, T/C (second compound 3.16 µM, first compound 0.00316 µM) was 16.5%. It also gave a viability, T/C (second compound 3.16 µM, first compound 0.01 µM) of 17.3%, a viability, T/C [9] of 18% and a viability, T/C [10] of 18.4%. It also gave a viability, T/C (second compound 10 µM, first compound 0.000316 µM) of 4.32%, a viability, T/C (second compound 10 µM, first compound 0.001 µM) of 3.84% and a viability, T/C (second compound 10 µM, first compound 0.00316 µM) of 4.16%. It also gave a viability, T/C (second compound 10 µM, first compound 0.01 µM) of 4.4%, a viability, T/C [11] of 5.31% and a viability, T/C [12] of 4.87%.
Work on `CCCS(=O)(=O)Nc1ccc(F)c(C(=O)c2c[nH]c3ncc(-c4ccc(Cl)cc4)cc23)c1F` + Cc1nc(NC(=O)N2CCCC2C(N)=O)sc1-c1ccnc(C(C)(C)C(F)(F)F)c1 yielded an IC50 (second compound 0.0316 µM) of 5.56 µM, an IC50 (second compound 0.1 µM) of 5.71 µM and an IC50 (second compound 0.316 µM) of 4.72 µM. The IC50 (second compound 1 µM) was < 0.0316 µM, the IC50 (second compound 3.16 µM) was < 0.0316 µM and the IC50 (second compound 10 µM) was < 0.0316 µM. It also gave a viability, T/C [1] of 97.5%, a viability, T/C [2] of 91% and a viability, T/C (second compound 0.0316 µM, first compound 0.316 µM) of 97.2%. For the same molecule, the viability, T/C (second compound 0.0316 µM, first compound 1 µM) was 92.2%, the viability, T/C (second compound 0.0316 µM, first compound 3.16 µM) was 86.9% and the viability, T/C (second compound 0.0316 µM, first compound 10 µM) was 11.7%. For the same molecule, the viability, T/C [3] was 92.4%, the viability, T/C [4] was 99.3% and the viability, T/C (second compound 0.1 µM, first compound 0.316 µM) was 99.3%. The viability, T/C (second compound 0.1 µM, first compound 1 µM) was 97.5%, the viability, T/C (second compound 0.1 µM, first compound 3.16 µM) was 91.8% and the viability, T/C (second compound 0.1 µM, first compound 10 µM) was 10.3%. For the same molecule, the viability, T/C [5] was 57.6%, the viability, T/C [6] was 60.3% and the viability, T/C (second compound 0.316 µM, first compound 0.316 µM) was 73.7%. The viability, T/C (second compound 0.316 µM, first compound 1 µM) was 87.1%, the viability, T/C (second compound 0.316 µM, first compound 3.16 µM) was 82.2% and the viability, T/C (second compound 0.316 µM, first compound 10 µM) was 8.31%. The viability, T/C [7] was 32.2%, the viability, T/C [8] was 36.7% and the viability, T/C (second compound 1 µM, first compound 0.316 µM) was 40.8%. The viability, T/C (second compound 1 µM, first compound 1 µM) was 49%, the viability, T/C (second compound 1 µM, first compound 3.16 µM) was 50.2% and the viability, T/C (second compound 1 µM, first compound 10 µM) was 5.09%. It also gave a viability, T/C [9] of 15.2%, a viability, T/C [10] of 16.1% and a viability, T/C (second compound 3.16 µM, first compound 0.316 µM) of 18.9%. It also gave a viability, T/C (second compound 3.16 µM, first compound 1 µM) of 21.9%, a viability, T/C (second compound 3.16 µM, first compound 3.16 µM) of 23.4% and a viability, T/C (second compound 3.16 µM, first compound 10 µM) of 2.52%. It also gave a viability, T/C [11] of 3.53%, a viability, T/C [12] of 3.46% and a viability, T/C (second compound 10 µM, first compound 0.316 µM) of 3.9%. It also gave a viability, T/C (second compound 10 µM, first compound 1 µM) of 5.16%, a viability, T/C (second compound 10 µM, first compound 3.16 µM) of 5.53% and a viability, T/C (second compound 10 µM, first compound 10 µM) of 2.11%.
